Measured values from ChEMBL document CHEMBL6092168, “Identification of novel indolinone derivatives as CTSC inhibitors to treat inflammatory bowel disease by modulating inflammatory factors” (Eur J Med Chem, 2024).
Calls of active or inactive are those of the source. The calls are words filed in the database; no cut-off is given here.

How the values were obtained:
Dipeptidyl peptidase 1 = Dipeptidyl peptidase 1 (Homo sapiens, UniProt P53634); test: Inhibition of human recombinant Cathepsin C using Gly-Phe-AFC as substrate preincubated for 3 hrs followed by substrate addition and measured after 1 hr by fluorescence based multifunctional microplate reader analysis
Dipeptidyl peptidase 1, sequence (P53634 25-134 limits assumed): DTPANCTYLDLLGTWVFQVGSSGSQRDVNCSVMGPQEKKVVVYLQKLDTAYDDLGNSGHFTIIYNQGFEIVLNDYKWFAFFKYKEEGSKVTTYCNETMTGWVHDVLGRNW
Dipeptidyl peptidase 1, sequence (P53634 231-394 limits assumed): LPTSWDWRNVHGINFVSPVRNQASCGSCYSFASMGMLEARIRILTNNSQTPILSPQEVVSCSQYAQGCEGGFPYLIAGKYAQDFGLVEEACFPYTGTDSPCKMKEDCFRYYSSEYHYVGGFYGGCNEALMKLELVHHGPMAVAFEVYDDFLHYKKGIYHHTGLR
Dipeptidyl peptidase 1, sequence (P53634 395-463 limits assumed): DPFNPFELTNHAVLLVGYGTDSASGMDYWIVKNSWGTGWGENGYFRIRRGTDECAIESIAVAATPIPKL

RAW264.7 [1] = test: Anti-inflammatory activity in mouse RAW264.7 cells assessed as inhibition of LPS-induced IL-1beta production at 5 uM preincubated for 1 hr followed by LPS addition and measured after 24 hrs by ELISA relative to control; type: functional
RAW264.7 [2] = test: Anti-inflammatory activity in mouse RAW264.7 cells assessed as inhibition of LPS-induced NO production preincubated for 1 hr followed by LPS addition and measured after 24 hrs by Griess reagent based assay; type: functional, cell-based
RAW264.7 [3] = test: Anti-inflammatory activity in mouse RAW264.7 cells assessed as inhibition of LPS-induced TNF-alpha production at 5 uM preincubated for 1 hr followed by LPS addition and measured after 24 hrs by ELISA relative to control; type: functional

SMILES	IC50 (Dipeptidyl peptidase 1)	IC50 (RAW264.7 [2])	Activity (RAW264.7 [1]; time 25.0 hrs)	Activity (RAW264.7 [3]; time 25.0 hrs)	Activity (RAW264.7 [1]; time 25 hrs)	Activity (RAW264.7 [3]; time 25 hrs)
COc1ccc(-c2cccc3c2NC(=O)/C3=C\c2ccnc3ccccc23)cc1	> 1 µM	> 50 µM	inactive	inactive		
CC(=O)Nc1ccc(-c2cccc3c2NC(=O)/C3=C\c2ccnc3ccccc23)cc1	0.303 µM	16.2 µM	inactive	inactive		
N#Cc1ccc(-c2cccc3c2NC(=O)/C3=C\c2ccnc3ccccc23)cc1	> 1 µM	> 50 µM	inactive	inactive		
CC(C)c1ccc(NC(=O)c2cccc(-c3ccc(CN4CCOCC4)cc3)c2)cc1	> 1 µM	> 50 µM	inactive	inactive		
CN(C)c1ccc(-c2cccc3c2NC(=O)/C3=C\c2ccnc3ccccc23)cc1	> 1 µM	15.1 µM	inactive	inactive		
Nc1ccccc1NC(=O)c1cccc(-c2ccc(CN3CCOCC3)cc2)c1	> 1 µM	> 50 µM	inactive	inactive		
NC(=O)c1ccc(-c2cccc3c2NC(=O)/C3=C\c2ccnc3ccccc23)cc1	0.29 µM	16.2 µM	inactive	inactive		
CNC(=O)c1ccc(NC(=O)c2cccc(-c3ccc(CN4CCOCC4)cc3)c2)cc1	> 1 µM	> 50 µM	inactive	inactive		
CC(=O)c1ccc(-c2cccc3c2NC(=O)/C3=C\c2ccnc3ccccc23)cc1	0.293 µM	16.8 µM	inactive	inactive		
Cc1cccc(NC(=O)c2cccc(-c3ccc(CN4CCOCC4)cc3)c2)c1	> 1 µM	> 50 µM	inactive	inactive		
CC(C)c1ccc(-c2cccc3c2NC(=O)/C3=C\c2ccnc3ccccc23)cc1	> 1 µM	> 50 µM	inactive	inactive		
O=C1Nc2c(cccc2-c2ccc(N3CCOCC3)cc2)/C1=C/c1ccnc2ccccc12	0.537 µM	11.3 µM	inactive	inactive		
O=C1Nc2c(cccc2-c2ccc(F)cc2)/C1=C/c1ccnc2ccccc12	> 1 µM	37.2 µM	inactive	inactive		
COc1ccc(NC(=O)c2cccc(-c3ccc(CN4CCOCC4)cc3)c2)cc1	0.731 µM	> 50 µM	inactive	inactive		
Nc1n[nH]c2ccc(-c3cccc4c3NC(=O)/C4=C\c3ccnc4ccccc34)cc12	0.398 µM	15.6 µM			59.3%	37.8%
CC(C)c1cccc(NC(=O)c2cccc(-c3ccc(CN4CCOCC4)cc3)c2)c1	> 1 µM	> 50 µM	inactive	inactive		
CC(=O)c1ccc(NC(=O)c2cccc(-c3ccc(CN4CCOCC4)cc3)c2)cc1	> 1 µM	> 50 µM	inactive	inactive		

SMILES	IC50 (Dipeptidyl peptidase 1)	IC50 (RAW264.7 [2])	Activity (RAW264.7 [1]; time 25.0 hrs)	Activity (RAW264.7 [3]; time 25.0 hrs)	Activity (RAW264.7 [1]; time 25 hrs)	Activity (RAW264.7 [3]; time 25 hrs)
Cc1ccccc1NC(=O)c1cccc(-c2ccc(CN3CCOCC3)cc2)c1	> 1 µM	> 50 µM	inactive	inactive		
Nc1ccc(NC(=O)c2cccc(-c3ccc(CN4CCOCC4)cc3)c2)cc1	> 1 µM	> 50 µM	inactive	inactive		
CC(=O)Nc1ccccc1NC(=O)c1cccc(-c2ccc(CN3CCOCC3)cc2)c1	0.9 µM	> 50 µM	inactive	inactive		
CC(=O)c1cccc(NC(=O)c2cccc(-c3ccc(CN4CCOCC4)cc3)c2)c1	0.292 µM	20.2 µM			47.4%	50.3%
CC(=O)Nc1cccc(NC(=O)c2cccc(-c3ccc(CN4CCOCC4)cc3)c2)c1	> 1 µM	> 50 µM	inactive	inactive		
CCc1ccc(NC(=O)c2cccc(-c3ccc(CN4CCOCC4)cc3)c2)cc1	> 1 µM	> 50 µM	inactive	inactive		
CC(C)c1ccccc1NC(=O)c1cccc(-c2ccc(CN3CCOCC3)cc2)c1	> 1 µM	> 50 µM	inactive	inactive		
CCc1cccc(NC(=O)c2cccc(-c3ccc(CN4CCOCC4)cc3)c2)c1	> 1 µM	> 50 µM	inactive	inactive		
CCc1ccccc1NC(=O)c1cccc(-c2ccc(CN3CCOCC3)cc2)c1	> 1 µM	> 50 µM	inactive	inactive		
O=C(Nc1cncc2ccccc12)c1cccc(-c2ccc(CN3CCOCC3)cc2)n1	0.251 µM	> 50 µM	inactive	inactive		
O=C(Nc1cccc(C(F)(F)F)c1)c1cccc(-c2ccc(CN3CCOCC3)cc2)c1	> 1 µM	> 50 µM	inactive	inactive		
O=C(Nc1ccc(F)cc1)c1cccc(-c2ccc(CN3CCOCC3)cc2)c1	> 1 µM	> 50 µM	inactive	inactive		
O=C(Nc1ccc(Cl)cc1)c1cccc(-c2ccc(CN3CCOCC3)cc2)c1	0.575 µM	> 50 µM	inactive	inactive		
CCc1ccc(-c2cccc3c2NC(=O)/C3=C\c2ccnc3ccccc23)cc1	> 1 µM	> 50 µM	inactive	inactive		
O=C(Nc1ccccc1)c1cccc(-c2ccc(CN3CCOCC3)cc2)c1	> 1 µM	> 50 µM	inactive	inactive		
Cc1ccc(-c2cccc3c2NC(=O)/C3=C\c2ccnc3ccccc23)cc1	> 1 µM	18.7 µM	inactive	inactive		
NCc1ccc(-c2cccc3c2NC(=O)/C3=C\c2ccnc3ccccc23)cc1		14.5 µM	inactive	inactive		

Now those with a lower IC50 (RAW264.7 [2]), led by results:

IC50 (Dipeptidyl peptidase 1)	IC50 (RAW264.7 [2])	SMILES	Activity (RAW264.7 [1]; time 25.0 hrs)	Activity (RAW264.7 [3]; time 25.0 hrs)	Activity (RAW264.7 [1]; time 25 hrs)	Activity (RAW264.7 [3]; time 25 hrs)
0.106 µM	4.4 µM	O=C1Nc2c(cccc2-c2ccc(CN3CCOCC3)cc2)/C1=C/c1ccnc2ccccc12			88.3%	72.2%
0.128 µM	5.1 µM	O=C1Nc2c(cccc2-c2ccc(CN3CCNCC3)cc2)/C1=C/c1ccnc2ccccc12			82.5%	68.7%
0.25 µM	9.7 µM	O=C(Nc1cncc2ccccc12)c1cccc(-c2ccc(CN3CCOCC3)cc2)c1			65.6%	62.5%
0.262 µM	8.7 µM	O=C(Nc1nccc2ccccc12)c1cccc(-c2ccc(CN3CCOCC3)cc2)c1			70.6%	67.7%
0.263 µM	8.2 µM	O=C(Nc1cccc2ccccc12)c1cccc(-c2ccc(CN3CCOCC3)cc2)c1			63.2%	54.3%
0.265 µM	9.7 µM	O=C(Nc1cccc(O)c1)c1cccc(-c2ccc(CN3CCOCC3)cc2)c1			55.7%	62.2%
0.145 µM	6.4 µM	Nc1c(C(=O)Nc2ccnc3ccccc23)cccc1-c1ccc(CN2CCOCC2)cc1			80.9%	75.2%
0.253 µM	10 µM	O=C(Nc1cccc2ccccc12)c1cccc(-c2ccc(CN3CCOCC3)cc2)n1			68.5%	59.6%
0.19 µM	9.8 µM	O=C1Nc2c(cccc2-c2ccc3[nH]ncc3c2)/C1=C/c1ccnc2ccccc12			62%	41.3%
0.31 µM	6.1 µM	Nc1c(C(=O)Nc2ccc3ccccc3c2)cccc1-c1ccc(CN2CCOCC2)cc1			64.2%	69.7%
0.195 µM	6.8 µM	O=C1Nc2c(cccc2-c2ccc3[nH]ccc3c2)/C1=C/c1ccnc2ccccc12			63.5%	43.2%
0.324 µM	8.3 µM	Nc1c(C(=O)Nc2nccc3ccccc23)cccc1-c1ccc(CN2CCOCC2)cc1			44.2%	33.3%
0.161 µM	3.2 µM	CN1CCN(Cc2ccc(-c3cccc4c3NC(=O)/C4=C\c3ccnc4ccccc34)cc2)CC1			80.4%	70.4%
	9.8 µM	O=C1Nc2c(cccc2-c2ccc3cc[nH]c3c2)/C1=C/c1ccnc2ccccc12			60.2%	39.4%
0.223 µM	7.6 µM	O=C(Nc1ccc2ccccc2c1)c1cccc(-c2ccc(CN3CCOCC3)cc2)c1			68.8%	63.2%
0.272 µM	8.4 µM	Nc1c(C(=O)Nc2cccc3ccccc23)cccc1-c1ccc(CN2CCOCC2)cc1			67.1%	40.1%
0.222 µM	5.3 µM	Nc1c(C(=O)Nc2cncc3ccccc23)cccc1-c1ccc(CN2CCOCC2)cc1			62.3%	60.8%
	6.8 µM	O=C1Nc2c(cccc2-c2ccc(C(=O)NC3CCOCC3)cc2)/C1=C/c1ccnc2ccccc12			88.1%	71.9%
